Measured values reported in ChEMBL document CHEMBL1201862, “PubChem BioAssay data set” (2004).
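Tested at 5 concentrations; 48 h exposure; 96-well plates; endpoints linearly interpolated, else capped at highest concentration. Abbreviation: GI50, concentration required for 50% inhibition of growth.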 Active and inactive are the calls of the source. Rule as the data show it: active = GI50 up to about 1.1 µM and inactive = higher.

Columns and labels:
Assay in all cases: DTP human tumour cell line panel, 48 h
[1] = test system: MCF7
[2] = test system: SK-MEL-28
[3] = test system: COLO 205
[4] = test system: OVCAR-5
[5] = test system: OVCAR-3
[6] = test system: HT-29
[7] = test system: MDA-N
[8] = test system: HCC 2998
[9] = test system: NCI-H522
[10] = test system: T47D
[11] = test system: SR
[12] = test system: NCI/ADR-RES
[13] = test system: 786-0
[14] = test system: Hs-578T
[15] = test system: DU-145
[16] = test system: OVCAR-4
[17] = test system: LOX IMVI
[18] = test system: HCT-116
[19] = test system: RXF 393

`Cc1cc(O)c(C(C)C)cc1C(=S)Nc1ccc(Cl)cc1` was tested, and the GI50 [1] was 8.11 µM (inactive), the GI50 [2] was 13.9 µM (inactive) and the GI50 [3] was 16.1 µM (inactive). The GI50 [4] was 15 µM (inactive), the GI50 [5] was 14.7 µM (inactive) and the GI50 [6] was 14.8 µM (inactive). For the same compound, the GI50 [7] was 11.4 µM (inactive), the GI50 [8] was 15.1 µM (inactive) and the GI50 [9] was 5.61 µM (inactive). For the same compound, the GI50 [10] was 11.6 µM (inactive), the GI50 [11] was 4.95 µM (inactive) and the GI50 [12] was 12.9 µM (inactive). The GI50 [13] was 14.1 µM (inactive), the GI50 [14] was 9.1 µM (inactive) and the GI50 [15] was 17.7 µM (inactive). For the same compound, the GI50 [16] was 7.19 µM (inactive), the GI50 [17] was 11.2 µM (inactive) and the GI50 [18] was 13 µM (inactive).

`COCOc1c(C(O[Si](C)(C)C(C)(C)C)c2cnc(Sc3ccccc3)n2C)ccc(OC)c1OC` (centres undefined) was tested, and the GI50 [1] was 1.76 µM (inactive), the GI50 [2] was 1.84 µM (inactive) and the GI50 [4] was > 100 µM (inactive). For the same compound, the GI50 [5] was 1.7 µM (inactive), the GI50 [6] was 1.93 µM (inactive) and the GI50 [7] was 1.77 µM (inactive). The GI50 [8] was 1.84 µM (inactive), the GI50 [19] was 1.36 µM (inactive) and the GI50 [9] was 1.62 µM (inactive). For the same compound, the GI50 [10] was 0.256 µM (active), the GI50 [11] was 2.47 µM (inactive) and the GI50 [12] was 1.35 µM (inactive). The GI50 [13] was 1.82 µM (inactive), the GI50 [14] was 2.31 µM (inactive) and the GI50 [15] was > 100 µM (inactive). The GI50 [16] was 3 µM (inactive), the GI50 [17] was 1.84 µM (inactive) and the GI50 [18] was 1.6 µM (inactive).

`CO/C(C)=N/CCC1=CCCCC1` was tested, and the GI50 [1] was > 100 µM (inactive), the GI50 [2] was > 100 µM (inactive) and the GI50 [3] was > 100 µM (inactive). The GI50 [4] was > 100 µM (inactive), the GI50 [5] was 89.1 µM (inactive) and the GI50 [6] was > 100 µM (inactive). For the same compound, the GI50 [7] was > 100 µM (inactive), the GI50 [8] was 52.5 µM (inactive) and the GI50 [19] was > 100 µM (inactive). The GI50 [9] was > 100 µM (inactive), the GI50 [10] was > 100 µM (inactive) and the GI50 [11] was 0.104 µM (active). For the same compound, the GI50 [12] was > 100 µM (inactive), the GI50 [13] was > 100 µM (inactive) and the GI50 [14] was > 100 µM (inactive). For the same compound, the GI50 [15] was > 100 µM (inactive), the GI50 [16] was > 100 µM (inactive) and the GI50 [18] was > 100 µM (inactive).

In the case of `CCC1CCN/C(=N/S(=O)(=O)c2cc(C)c(Cl)cc2S)N1` (centres undefined), the GI50 [1] is reported as 33.3 µM (inactive), the GI50 [2] is reported as 52.7 µM (inactive) and the GI50 [3] is reported as 39.2 µM (inactive). For the same compound, the GI50 [4] was 22.3 µM (inactive), the GI50 [6] was 30.1 µM (inactive) and the GI50 [7] was 33 µM (inactive). The GI50 [8] was 43.2 µM (inactive), the GI50 [19] was 76.2 µM (inactive) and the GI50 [9] was 27.7 µM (inactive). For the same compound, the GI50 [10] was 26.8 µM (inactive), the GI50 [11] was 35.4 µM (inactive) and the GI50 [12] was 38.7 µM (inactive). For the same compound, the GI50 [13] was 33.5 µM (inactive), the GI50 [14] was 28.4 µM (inactive) and the GI50 [15] was 43.7 µM (inactive). For the same compound, the GI50 [16] was 24.3 µM (inactive), the GI50 [17] was 24.1 µM (inactive) and the GI50 [18] was 24.7 µM (inactive).

For `Clc1ccc(C2ON=C(c3ccccc3)N2C23CC4CC(CC(C4)C2)C3)cc1` (centres undefined), the GI50 [1] was > 10 µM (inactive), the GI50 [2] was > 10 µM (inactive) and the GI50 [3] was > 10 µM (inactive). The GI50 [4] was > 10 µM (inactive), the GI50 [5] was > 10 µM (inactive) and the GI50 [6] was > 10 µM (inactive). For the same compound, the GI50 [7] was > 10 µM (inactive), the GI50 [8] was > 10 µM (inactive) and the GI50 [19] was > 10 µM (inactive). For the same compound, the GI50 [9] was > 10 µM (inactive), the GI50 [10] was > 10 µM (inactive) and the GI50 [11] was > 10 µM (inactive). The GI50 [12] was > 10 µM (inactive), the GI50 [13] was > 10 µM (inactive) and the GI50 [14] was > 10 µM (inactive). For the same compound, the GI50 [15] was > 10 µM (inactive), the GI50 [16] was > 10 µM (inactive) and the GI50 [17] was > 10 µM (inactive). For the same compound, the GI50 [18] was > 10 µM (inactive).

In the case of `COc1cccc(-c2cc(O)c3cccnc3n2)c1`, the GI50 [1] is reported as 0.488 µM (active), the GI50 [2] is reported as 0.234 µM (active) and the GI50 [3] is reported as 0.0771 µM (active). The GI50 [5] was 0.0571 µM (active), the GI50 [6] was 0.0543 µM (active) and the GI50 [7] was 0.0159 µM (active). The GI50 [8] was 0.251 µM (active), the GI50 [19] was 0.229 µM (active) and the GI50 [9] was 0.0698 µM (active). For the same compound, the GI50 [10] was > 100 µM (inactive), the GI50 [11] was 0.0614 µM (active) and the GI50 [12] was 0.0617 µM (active). The GI50 [13] was 0.165 µM (active), the GI50 [14] was 0.092 µM (active) and the GI50 [15] was 0.556 µM (active). For the same compound, the GI50 [16] was > 40.5 µM (inactive), the GI50 [17] was 0.0867 µM (active) and the GI50 [18] was 0.0546 µM (active).
